These results are taken from patent US20210186972A1, “FORMULATIONS AND METHODS FOR THE PREVENTION AND TREATMENT OF TUMOR METASTASIS AND TUMORIGENESIS” (THE UNITED STATES OF AMERICA, AS REPRESENTED BY THE …, priority 2018, published 2021).

The subject of one assay is PC3M cells. The assay is described as follows: 24-well Transwell MATRIGEL invasion assay, PC3M. It is filed as cell-based, human. Particulars: 0.6 μM, within 24 hours. As to the method:
FIG. 3 is a bar graph showing that metarrestin inhibits MATRIGEL gelatinous protein mixture (BD Biosciences, Franklin Lakes, N.J.) invasion at below micromolar concentrations (0.6 μM) within 24 hours of treatment (* p<0.05 and ** p<0.01 in comparison to DMSO [control]). The invasion (%) is on the y-axis and the metarrestin [microM] is on the x-axis. The cell line PC3M is shown in white bars and the cell line PANC1 (human pancreas) is shown in black bars.
24-well Transwell Permeable MATRIGEL gelatinous protein mixture Invasion assay: The effect of metarrestin on invasion activity of PANC1 and PC3M cells was measured using 24-well Transwell Permeable MATRIGEL gelatinous protein mixture Invasion Chambers with 8 μm pores (Corning, Cat #354480). Membranes were rehydrated with 500 μL of serum-free DMEM (Thermo Fisher, Cat #11965084) both inside the chamber and inside the well and incubated for two hours at 37° C., 5% CO2. Cells were detached, washed, resuspended in serum-free DMEM, counted, and diluted to a final concentration of 1×10^5 cells/mL in six separate 15 mL conical tubes. […] 750 μL of DMEM plus 10% FBS acting as a chemoattractant were placed in the basal wells. Plates were incubated at 37° C., 5% CO2 for 24 hours. […]

The subject of another assay is human cancer cell lines. The assay is described as follows: PNC prevalence in a range of cancer cell lines. It is filed as cell-based. Particulars: 1 μM, 24 hours, different human cancer cell lines. How it is done:
FIG. 2 is a bar graph showing that 1 μM metarrestin was effective at reducing PNCs in a range of cancer cell lines (p<0.05 for PNC reduction in all cell lines; the list of cells is in Table 1 below, see also Example 2 below). The DMSO control is shown in light grey bars and metarrestin in dark grey bars. PNC prevalence (%) is on the y-axis and the cell line names are along the x-axis.
In summary, several cell types (see list below in Table 1) were treated with 1 μM (IC100 for PC3M cells) of metarrestin for 24 hours. Specifically, PC-3M cells were maintained in RPMI 1640 medium. Other cell lines including HeLa, Panel, PACADD159, PACADD183, PA-TU-8988T, KP-3, PK-8, NOR-P1, L3.6sl, Colo357, Suit-2, HP AC were maintained in DMEM with 10% FBS (GEMINI™ Bio Products) and 100 units/mL of penicillin and streptomycin. Cells were generally plated approximately 24 h before treatment with metarrestin for 5 h or 24 h at 1 μM.

In a further assay the test system is NSG PANC1 mice. Description: Survival in NSG PANC1 pancreatic cancer metastasis model, drug-infused chow. It counts as in vivo. From the text:
FIG. 13 is a graph showing the survival rate of mice following metarrestin or vehicle treatment. This graph illustrates that metarrestin treatment extends survival in the NSG PANC1 pancreatic cancer metastasis model. […] The survival rate in the y-axis and the number of days after treatment is on the x-axis. Metarrestin treatment is the solid grey line at 100% survival and the descending black line is the vehicle (*** p<0.001).
FIG. 14 is a graph showing the survival rate of mice following metarrestin or vehicle treatment. This graph illustrates that metarrestin treatment extends survival in the NSG PANC1 pancreatic cancer metastasis model. Metarrestin treatment was provided through drug-infused chow (70 ppm designed to administer 10 mg/kg daily) after mice developed macrometastasis, including visible liver surface deposits. Metarrestin treatment extended the survival time of the mice compared to vehicle treated (NIH 31 Haslan diet). The survival rate in the y-axis and the number of days after treatment is on the x-axis. Metarrestin treatment is the solid grey line and the black line is the vehicle ([…]).
To evaluate whether metarrestin treatment can provide a survival advantage by preventing metastatic progression, the above experiment was repeated, but mice were followed until death or when animals reached study endpoint. NSG mice were injected with 60,000 3D PANC1 cells (details of assay below), and daily treatment with metarrestin-infused chow (10 mg/kg; 70 ppm, micronized particles added to NIH 31 Haslan rodent diet) began 6 weeks after tumor cell implantation, when metastasis was limited to micrometastasis by histopathological examination (FIG. 63). Animals in the control group receiving regular chow started to die 25 days after the start of treatment, whereas the metarrestin treatment group had no mortality more than 90 days after the start of treatment (FIG. 13). […]
Pancreatic cancer model: 60,000 luciferase-tagged PANC1 spheres were injected into the pancreas of Nod/IL2gamma (null) mice (obtained from NCI Mouse Repository, Frederick, Md.; on ACUC-approved animal protocol SB-211-2). […] Organs were then individually dissected, subjected to quantitative xenogene imaging, and fixed with 4% non-buffered formaldehyde. Impact of metastatic burden was calculated and graphed as liver and lung/primary tumor ratios based on a five-minute photon count for the liver normalized to liver weight (g), which was then compared to the average photon count per weight (g) of the primary pancreatic tumor of the same animal. […] Liver metastasis/mm^2 was calculated as the sum of the […] of the individual metastases. Tumor volume (mm^3) was calculated as (L×W2), where L=length (mm) and W=width (mm). Animal survival was measured from the first day of treatment until death. […]

The test system of another assay is eEF1A. The assay is described as follows: Cellular thermal shift assay (CETSA). It counts as binding. Particulars: PC3M cell lysate. From the text:
DMSO is the top panel and metarrestin is the bottom panel.

The mark [1] stands for this setting: infused chow 10 mg/kg (70 ppm) after macrometastasis visible.

Consider `N=c1c2c(-c3ccccc3)c(-c3ccccc3)n(Cc3ccccc3)c2ncn1[C@H]1CC[C@H](O)CC1` [metarrestin], for which the “Invasion of PC3M cells” value in the assay with PC3M cells is reported as “effectively blocked the invasion”. The PNC prevalence entry in the assay on human cancer cell lines is given as “reduced PNC prevalence”. In addition, in the assay on NSG PANC1 mice (setting [1]), the “Extension of median overall survival over control group” value is “more than two-fold”; the “Organ replacement with tumors at necropsy (liver, lungs)” value is “preserved organs”; the “Primary tumor growth in the pancreas” value is given as “no significant difference”. For the same molecule, the “Time after start of treatment without mortality” value with NSG PANC1 mice (infused chow 10 mg/kg (70 ppm) from 6 weeks after implantation (micrometastasis)) is listed as “more than 90 days”. Further, the “Aggregation temperature of eEF1A” value in the assay on eEF1A is “increase in the aggregation temperature of eEF1A”.
